Experimental data: US12655116B2, “Substituted isophthalic acid diamides” (Bayer Aktiengesellschaft, priority 2020, dated 2026)

Assays:
[1] = test system: SETVI; test: Pre-emergence herbicidal action against SETVI; type: in vivo, Setaria viridis; settings: dosage 80 g/ha
How it was run: (§1)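 Greenhouse pots of sandy loam held seeds covered with soil, onto which the compound was applied before emergence. An aqueous suspension or emulsion of WP or EC was used at 600 to 800 l/ha with 0.2% wetting agent. Percent damage was judged visually at 3 weeks.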

[2] = test system: PHBPU; test: Post-emergence herbicidal action against PHBPU; type: in vivo, Pharbitis purpurea; settings: dosage 20 g/ha
How it was run: (§2)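 Foliar application at one-leaf stage of formulated test compounds, aqueous spray at 600–800 l/ha with 0.2% wetting agent. Greenhouse, optimal conditions, ~3 weeks; damage scored visually in % relative to untreated plants.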

[3] = test system: ABUTH; test: Pre-emergence herbicidal action against ABUTH; type: in vivo, Abutilon theophrasti; settings: for Pre-emergence action against ABUTH (herbicidal activity): 80 g/ha, scored visually after 3 weeks vs untreated controls (100% = plants have died, 0% = like control plants); for Pre-emergence action against ABUTH (herbicidal activity in percent): dosage 20 g/ha, scored visually after 3 weeks vs untreated controls, 100% = plants have died, 0% = like control plants
How it was run: as §1

[4] = test system: DIGSA; test: Post-emergence herbicidal action against DIGSA; type: in vivo, Digitaria sanguinalis; settings: for Post-emergence action against DIGSA in %: 5 g/ha; for Post-emergence action against DIGSA: 20 g/ha
How it was run: as §2

[5] = test system: MATIN; test: Pre-emergence herbicidal action against MATIN; type: in vivo, Matricaria inodora
How it was run: as §1

[6] = test system: PHBPU; test: Pre-emergence herbicidal action against PHBPU; type: in vivo, Pharbitis purpurea; settings: dosage 80 g/ha
Source text: Seeds of monocotyledonous and dicotyledonous weed plants and crop plants are laid out in sandy loam soil in wood-fiber pots and covered with soil. The compounds of the invention, formulated in the form of wettable powders (WP) or as emulsion concentrates (EC), are then applied to the surface of the covering soil in the form of an aqueous suspension or emulsion at a water application rate equivalent to 600 to 800 l/ha, with addition of 0.2% wetting agent. After the treatment, the pots are placed in a greenhouse and kept under good growth conditions for the trial plants. The damage to the test plants is scored visually after a test period of 3 weeks by comparison with untreated controls (herbicidal activity in percent (%): 100% activity=the plants have died, 0% activity=like control plants). […] The tables below illustrate, in an illustrative manner, the post-emergence herbicidal action of the compounds of the invention, the herbicidal activity being stated in percent.

[7] = test system: AVEFA; test: Pre-emergence herbicidal action against AVEFA; type: in vivo, Avena fatua; settings: 80 g/ha, pre-emergence
How it was run: as §1

[8] = test system: VIOTR; test: Post-emergence herbicidal action against VIOTR; type: in vivo, Viola tricolor; settings: 20 g/ha
How it was run: as §2

[9] = test system: AMARE; test: Pre-emergence herbicidal action against AMARE; type: in vivo, Amaranthus retroflexus
How it was run: as §1

[10] = test system: ALOMY; test: Post-emergence herbicidal action against ALOMY; type: in vivo, Alopecurus myosuroides; settings: visual assessment about 3 weeks after treatment vs untreated controls
How it was run: as §2

[11] = test system: VERPE; test: Pre-emergence herbicidal action against VERPE; type: in vivo, Veronica persica; settings: dosage 80 g/ha
How it was run: as §1

[12] = test system: SETVI; test: Post-emergence herbicidal action against SETVI; type: in vivo, Setaria viridis
How it was run: as §2

[13] = test system: VIOTR; test: Pre-emergence herbicidal action against VIOTR; type: in vivo, Viola tricolor
How it was run: as §1

[14] = test system: MATIN; test: Post-emergence herbicidal action against MATIN; type: in vivo, Matricaria inodora
How it was run: as §2

[15] = test system: ABUTH; test: Post-emergence herbicidal action against ABUTH; type: in vivo, Abutilon theophrasti; settings: visual assessment about 3 weeks after treatment vs untreated controls
How it was run: as §2

[16] = test system: DIGSA; test: Pre-emergence herbicidal action against DIGSA; type: in vivo, Digitaria sanguinalis
How it was run: as §1

[17] = test system: ECHCG; test: Post-emergence herbicidal action against ECHCG; type: in vivo, Echinochloa crus-galli
How it was run: as §2

[18] = test system: ALOMY; test: Pre-emergence herbicidal action against ALOMY; type: in vivo, Alopecurus myosuroides; settings: 80 g/ha, pre-emergence, scored visually after 3 weeks vs untreated controls (100% = plants have died, 0% = like control plants)
How it was run: as §1

[19] = test system: ECHCG; test: Pre-emergence herbicidal action against ECHCG; type: in vivo, Echinochloa crus-galli
How it was run: as §1

[20] = test system: AMARE; test: Post-emergence herbicidal action against AMARE; type: in vivo, Amaranthus retroflexus; settings: 20 g/ha, visual assessment about 3 weeks after treatment, 100% = plants have died, 0% = like control plants
How it was run: as §2

[21] = 20 g/ha, scored visually after 3 weeks vs untreated controls, 100% = plants have died, 0% = like control plants
[22] = 80 g/ha, scored visually after 3 weeks vs untreated controls (100% = plants have died, 0% = like control plants)

| Structure (SMILES) | Pre-emergence action against SETVI in % [1] [%] | Post-emergence action against PHBPU in % [2] [%] | Pre-emergence action against ABUTH (herbicidal activity) [3] [%] | Pre-emergence action against ABUTH (herbicidal activity in percent) [3] [%] | Post-emergence action against DIGSA in % [4] [%] | Post-emergence action against DIGSA [4] [%] | Pre-emergence action against MATIN in % ([5]; dosage 20 g/ha) [%] | Pre-emergence action against MATIN in % ([5]; dosage 80 g/ha) [%] | Pre-emergence action against PHBPU in % [6] [%] | Pre-emergence action against AVEFA in % [7] [%] | Pre-emergence action against AMARE in % [9, 21] [%] | Pre-emergence action against AMARE in % [9, 22] [%] | Post-emergence action against ALOMY in % ([10]; dosage 20 g/ha) [%] | Pre-emergence action against VERPE in % [11] [%] | Pre-emergence action against VIOTR in % ([13]; dosage 80 g/ha) [%] | Post-emergence action against MATIN in % ([14]; dosage 20 g/ha) [%] | Pre-emergence action against DIGSA in % ([16]; dosage 80 g/ha) [%] | Post-emergence action against ECHCG in % ([17]; dosage 20 g/ha) [%] | Pre-emergence action against ALOMY (herbicidal activity) [18] [%] | Pre-emergence action against ECHCG in % ([19]; 80 g/ha) [%] | further results |
| --- | --- | --- | --- | --- | --- | --- | --- | --- | --- | --- | --- | --- | --- | --- | --- | --- | --- | --- | --- | --- | --- |
| Cn1nnnc1NC(=O)c1ccc(C(F)(F)F)c(C(=O)NCC2CC2)c1Br [Example 1-210] | 100 | 100 | 100 | 100 | 80 | 90 | 100 | 100 | 80 | 90 | 100 | 100 | 100 | 80 | 100 | 90 | 100 | 80 | 80 | 100 | Post-emergence action against VIOTR in % [8]: 90%; Post-emergence action against ALOMY in % ([10]; dosage 5 g/ha): 80%; Post-emergence action against SETVI in % ([12]; dosage 5 g/ha): 80%; Post-emergence action against SETVI in % ([12]; dosage 20 g/ha): 90%; Pre-emergence action against VIOTR in % ([13]; dosage 20 g/ha): 100%; Post-emergence action against MATIN in % ([14]; dosage 5 g/ha): 80%; Post-emergence action against ABUTH in % ([15]; dosage 5 g/ha): 80%; Post-emergence action against ABUTH in % ([15]; dosage 20 g/ha): 90%; Pre-emergence action against DIGSA in % ([16]; dosage 20 g/ha): 100%; Pre-emergence action against ECHCG in % ([19]; 20 g/ha): 80% |
| CCn1nnnc1NC(=O)c1ccc(C(F)F)c(C(=O)NCC2CC2)c1Br [Example 2-228] | 90 | 80 | 100 | 100 | 80 | 80 | 90 | 100 | 100 | 80 | 100 | 100 | 80 | 90 | 100 | 80 | 100 | 90 | 80 | 100 | Post-emergence action at 20 g/ha against AMARE in % [20]: 90%; Post-emergence action against VIOTR in % [8]: 80%; Pre-emergence action against VIOTR in % ([13]; dosage 20 g/ha): 100%; Pre-emergence action against DIGSA in % ([16]; dosage 20 g/ha): 100%; Post-emergence action against ECHCG in % ([17]; dosage 5 g/ha): 80% |
| CCn1nnnc1NC(=O)c1ccc(Br)c(C(=O)NCC(F)(F)F)c1Cl [Example 2-181] | 100 | 90 | 100 | 100 |  |  | 90 | 100 | 80 | 90 | 100 | 100 | 90 | 100 | 80 | 90 | 100 | 90 | 80 | 100 | Post-emergence action against SETVI in % ([12]; dosage 20 g/ha): 90%; Post-emergence action against MATIN in % ([14]; dosage 5 g/ha): 80% |
